Results published in ChEMBL document CHEMBL1125424 (J Med Chem, 1992).

Tests used:
[1] = target: Substance-P receptor (Rattus norvegicus, UniProt P14600); test: Inhibition of Tachykinin receptor 1 of rat forebrain tissue
[2] = species: Cavia porcellus; test: pA2 was evaluated from schild analyses of the guinea pig ileum contractility data; type: functional; conditions: read-out: pA2 (converted)
[3] = test system: Rattus norvegicus; test: In vivo SP antagonist activity in rats using SP-induced salivation and paw edema assays; type: functional
[4] = test system: Rattus norvegicus; test: cIn vivo SP antagonist activity in rats using SP-induced salivation and paw edema assays; type: functional

Sequence of Substance-P receptor (P14600 whole entry): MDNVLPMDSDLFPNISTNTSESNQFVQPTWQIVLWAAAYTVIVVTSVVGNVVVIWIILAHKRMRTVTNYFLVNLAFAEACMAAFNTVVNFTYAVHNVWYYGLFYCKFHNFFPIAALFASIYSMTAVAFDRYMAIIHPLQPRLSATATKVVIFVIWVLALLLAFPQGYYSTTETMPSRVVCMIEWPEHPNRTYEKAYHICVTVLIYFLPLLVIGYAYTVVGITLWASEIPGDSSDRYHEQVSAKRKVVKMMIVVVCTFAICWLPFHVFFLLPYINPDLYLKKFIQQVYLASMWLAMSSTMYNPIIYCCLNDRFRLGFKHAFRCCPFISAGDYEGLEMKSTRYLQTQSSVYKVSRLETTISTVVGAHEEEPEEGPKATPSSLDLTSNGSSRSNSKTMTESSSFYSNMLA

Compound	IC50 [1]	other results
CCn1c(/C=C/C=C2\N(C)c3ccccc3C2(C)C)[n+](CCOC(C)=O)c2cc3ccccc3cc21	410 nM	–
CCN1/C(=C\C=C\c2n(CC)c3cc4ccccc4cc3[n+]2CC)C(C)(C)c2ccccc21	360 nM	–
CCN1/C(=C\C=C\c2n(CC)c3cc4ccccc4cc3[n+]2CC)Sc2ccccc21	320 nM	–
CCN1/C(=C\C=C2CC[n+]3c2n(CC)c2cc4ccccc4cc23)Oc2ccccc21	4200 nM	–
CCn1c(/C=C/C=C2\N(C)c3ccccc3C2(C)C)[n+](CC)c2cc3ccccc3cc21.[Cl-]	390 nM	Kb [2]: 35.5 nM; ED50 [3]: 0.48 mg/kg
CCn1c(/C=C/C=C2\N(C)c3ccccc3C2(C)C)[n+](CCO)c2cc3ccccc3cc21	450 nM	–
CCn1c(/C=C/C=C2\N(C)c3ccccc3C2(C)C)[n+](CC)c2nc3ccccc3nc21.[Cl-]	–	Kb [2]: 58.9 nM; ED50 [4]: 1.73 mg/kg
CCn1c2[n+](c3cc4ccccc4cc31)CCC2=C/C=C1\N(C)c2ccccc2C1(C)C	790 nM	–

Continued by falling IC50 [1], values first:

IC50 [1]	Compound	other results
1300 nM	CCN1/C(=C\C=C2/CCC[n+]3c2n(CC)c2cc4ccccc4cc23)Sc2ccccc21	–
310 nM	CCN1/C(=C\C=C\c2n(CC)c3cc4ccccc4cc3[n+]2CC)Oc2ccccc21	–
310 nM	CCn1c2[n+](c3cc4ccccc4cc31)C(C)CC2=C/C=C1\N(C)c2ccc3ccccc3c2C1(C)C (stereo not given)	–
180 nM	CCN1/C(=C\C=C2CC(C)[n+]3c2n(CC)c2cc4ccccc4cc23)Sc2ccccc21 (stereo not given)	–
